This passage reports Km results from publication PMC11383786, “Parallel evolution of methyltransferases leads to vobasine biosynthesis in Tabernaemontana elegans and Catharanthus roseus” (Frontiers in Plant Science, 2024).

In the assay the test system is T1, TePeNMT (TeMT1).
T1 construct: N-terminal His-tag, codon optimized synthetic gene in pET30a(+) NotI/XhoI, E. coli BL21(DE3), Ni-NTA purified; no chloroplast transit peptide predicted
Briefly: Michaelis-Menten kinetics, LC-MS/MS detection of product vobasine. Type of assay: biochemical, Tabernaemontana elegans. Conditions: 50 μM S-adenosylmethionine (saturating), 20 mM Tris pH 7.5, 30 °C, 5 min. The source says:
Michaelis-Menten kinetics, LC-MS/MS detection of product vobasine on TePeNMT (TeMT1)

By Km is commonly meant the substrate concentration at which the rate is half of its maximum.

`C/C=C1/CN[C@H]2Cc3c([nH]c4ccccc34)C(=O)C[C@@H]1[C@@H]2C(=O)OC` [perivine]: the Km stood at 1.91 µM.
